Laboratory results: patent publication US20160220573A1, “COMBINATION THERAPIES FOR TREATING CANCERS” (Gilead Sciences, Inc., priority 2015, published 2016)

Tested on: CLL cells
Experiment: Human CLL Apoptosis Assay
Assay type: cell-based
Settings: without HS-5 co-culture
Description: Peripheral blood mononuclear cells (PBMCs) were isolated from primary chronic lymphocytic leukemia (CLL) patients and cultured for 3-5 hours in Lymphocyte Growth Medium (LGM, RPMI 1640, 1 mM Sodium Pyruvate, 10 mM HEPES, pH 7.4, 100 U/mL Penicillin/100 μg/mL Streptomycin, 55 μM β-Mercaptoethanl, 2 mM GlutaMAX, and 10% FBS) at 37° C. with 5% CO2. Cells were then centrifuged at room temperature for 10 minutes and resuspended in an appropriate volume of LGM for plating (maximum cell density=3.12×10^6/ml). Final assay wells were set up in U-bottom 96-well tissue culture plates with HS-5 co-culture (plates were coated with 3×10^4 HS-5 cells in 100 μl overnight at 37° C. prior to the assay) or no co-culture.
Cell suspensions (80 μL, 2.5×10^5-9.4×10^4) were added to the plate and incubated for 1 hour prior to stimulation with αIgM/αIgG (7.8 μg/well) and αCD40 (4 μg/well). Cells were incubated with compounds for about 66 hours at 37° C. After incubation, the cells were transferred to deeper plates and washed once with 500 μL of 1×PBS^+/+. Cells were resuspended in Invitrogen's aqua Live/Dead reagent according to manufacturer's directions and incubated 30 minutes on ice. Aqua Live/Dead was quenched with an equal volume of PBS^+/+ with 4% FBS (FACS buffer). Cells were centrifuged and labeled with αCD5^−PE, αCD19-BV421 and AnnexinV-APC in a total volume of […] and incubated 30 minutes on ice. After labeling, cells were rinsed twice in FACS buffer and then fixed with BD Fixation buffer for 30 minutes on ice. Cells were rinsed twice with FACS buffer and analyzed.
For the apoptosis analysis, flow cytometric sampling of 5000-20,000 total events were collected on a BD FACS Canto II instrument using a high throughput screen (HTS) autosampler for analysis of apoptosis. CD5^+/CD19^+ cells were identified and subsequently gated for AnnexinV^+/LiveDead and AnnexinV^+/LiveDead^+ populations.
Flow cytometric data were extracted to a flow cytometry standard (fcs) file. Average percentages of AnnexinV^+ cells were determined for the positive control and negative wells (no compound). The percentage of AnnexinV^+ cells represented the percentage or levels of apoptosis. Similar results were obtained for CLL cells with HS-5 co-culture.

Compound: c1cn2cc(-c3ccc4cn[nH]c4c3)nc(Nc3ccc(N4CCOCC4)cc3)c2n1 [Compound A1, 6-(1H-indazol-6-yl)-N-(4-morpholinophenyl)imidazo[1,2-a]pyrazin-8-amine]
- Percentage of the AnnexinV^+ cells from CLL patients (Sample 1, 0 nM Compound B1, 30 nM Compound A1): 12%
- Percentage of the AnnexinV^+ cells from CLL patients (Sample 1, 0 nM Compound B1, 100 nM Compound A1): 12%
- Percentage of the AnnexinV^+ cells from CLL patients (Sample 1, 0 nM Compound B1, 300 nM Compound A1): 16%
- Percentage of the AnnexinV^+ cells from CLL patients (Sample 2, 0 nM Compound B1, 30 nM Compound A1): 9%
- Percentage of the AnnexinV^+ cells from CLL patients (Sample 2, 0 nM Compound B1, 100 nM Compound A1): 12%
- Percentage of the AnnexinV^+ cells from CLL patients (Sample 2, 0 nM Compound B1, 300 nM Compound A1): 20%
- Percentage of the AnnexinV^+ cells from CLL patients (Sample 3, 0 nM Compound B1, 30 nM Compound A1): 13%
- Percentage of the AnnexinV^+ cells from CLL patients (Sample 3, 0 nM Compound B1, 100 nM Compound A1): 15%
- Percentage of the AnnexinV^+ cells from CLL patients (Sample 3, 0 nM Compound B1, 300 nM Compound A1): 18%

Compound: CC1(C)CCC(CN2CCN(c3ccc(C(=O)NS(=O)(=O)c4ccc(NCC5CCOCC5)c([N+](=O)[O-])c4)c(Oc4cnc5[nH]ccc5c4)c3)CC2)=C(c2ccc(Cl)cc2)C1 [Compound B1]
- Percentage of the AnnexinV^+ cells from CLL patients (Sample 1, 0.8 nM Compound B1, 0 nM Compound A1): 13%
- Percentage of the AnnexinV^+ cells from CLL patients (Sample 1, 1.6 nM Compound B1, 0 nM Compound A1): 15%
- Percentage of the AnnexinV^+ cells from CLL patients (Sample 1, 3.1 nM Compound B1, 0 nM Compound A1): 15%
- Percentage of the AnnexinV^+ cells from CLL patients (Sample 1, 6.3 nM Compound B1, 0 nM Compound A1): 16%
- Percentage of the AnnexinV^+ cells from CLL patients (Sample 1, 12.5 nM Compound B1, 0 nM Compound A1): 19%
- Percentage of the AnnexinV^+ cells from CLL patients (Sample 1, 25 nM Compound B1, 0 nM Compound A1): 24%
- Percentage of the AnnexinV^+ cells from CLL patients (Sample 1, 50 nM Compound B1, 0 nM Compound A1): 31%
- Percentage of the AnnexinV^+ cells from CLL patients (Sample 1, 100 nM Compound B1, 0 nM Compound A1): 36%
- Percentage of the AnnexinV^+ cells from CLL patients (Sample 1, 200 nM Compound B1, 0 nM Compound A1): 46%
- Percentage of the AnnexinV^+ cells from CLL patients (Sample 2, 0.8 nM Compound B1, 0 nM Compound A1): 10%
- Percentage of the AnnexinV^+ cells from CLL patients (Sample 2, 1.6 nM Compound B1, 0 nM Compound A1): 18%
- Percentage of the AnnexinV^+ cells from CLL patients (Sample 2, 3.1 nM Compound B1, 0 nM Compound A1): 35%
- Percentage of the AnnexinV^+ cells from CLL patients (Sample 2, 6.3 nM Compound B1, 0 nM Compound A1): 55%
- Percentage of the AnnexinV^+ cells from CLL patients (Sample 2, 12.5 nM Compound B1, 0 nM Compound A1): 76%
- Percentage of the AnnexinV^+ cells from CLL patients (Sample 2, 25 nM Compound B1, 0 nM Compound A1): 89%
- Percentage of the AnnexinV^+ cells from CLL patients (Sample 2, 50 nM Compound B1, 0 nM Compound A1): 93%
- Percentage of the AnnexinV^+ cells from CLL patients (Sample 2, 100 nM Compound B1, 0 nM Compound A1): 95%
- Percentage of the AnnexinV^+ cells from CLL patients (Sample 2, 200 nM Compound B1, 0 nM Compound A1): 97%
- Percentage of the AnnexinV^+ cells from CLL patients (Sample 3, 0.8 nM Compound B1, 0 nM Compound A1): 16%
- Percentage of the AnnexinV^+ cells from CLL patients (Sample 3, 1.6 nM Compound B1, 0 nM Compound A1): 21%
- Percentage of the AnnexinV^+ cells from CLL patients (Sample 3, 3.1 nM Compound B1, 0 nM Compound A1): 33%
- Percentage of the AnnexinV^+ cells from CLL patients (Sample 3, 6.3 nM Compound B1, 0 nM Compound A1): 50%
- Percentage of the AnnexinV^+ cells from CLL patients (Sample 3, 12.5 nM Compound B1, 0 nM Compound A1): 69%
- Percentage of the AnnexinV^+ cells from CLL patients (Sample 3, 25 nM Compound B1, 0 nM Compound A1): 89%
- Percentage of the AnnexinV^+ cells from CLL patients (Sample 3, 50 nM Compound B1, 0 nM Compound A1): 97%
- Percentage of the AnnexinV^+ cells from CLL patients (Sample 3, 100 nM Compound B1, 0 nM Compound A1): 99%
- Percentage of the AnnexinV^+ cells from CLL patients (Sample 3, 200 nM Compound B1, 0 nM Compound A1): 100%
